Measured values: publication PMC10120512, “Benzenesulfonamide derivatives as Vibrio cholerae carbonic anhydrases inhibitors: a computational-aided insight in the structural rigidity-activity relationships” (Journal of Enzyme Inhibition and Medicinal Chemistry, 2023)

Columns and labels:
VchαCA [1] = target: VchαCA (Vibrio cholerae, UniProt Q9KMP6); assay: biochemical; format: biochemical
VchβCA = VchβCA (Vibrio cholerae, UniProt A0A086SLX8); assay: biochemical
VchαCA [2] = assay: biochemical; format: biochemical; conditions: for SI [ KI hCA I/KI VchαCA ]: selectivity index hCA I over VchαCA; for SI [ KI hCA II/KI VchαCA ]: selectivity index hCA II over VchαCA
VchγCA = VchγCA (Vibrio cholerae, UniProt Q9KVT1); assay: biochemical
[3] = tested on: clinical isolates of V. cholerae (SI-Vc22, SI-Vc71, SI-Vc912); assay: Direct antibacterial activity, agar diffusion method; format: cell-based; conditions: for inhibition zone diameter: all the isolates, data not shown; for growth inhibition against at least one of the clinical isolates: 2 μL spot, 37 °C, 24 h; on all read-outs here: test concentration or dose not given here

Chain of VchβCA (A0A086SLX8 entry or part of it): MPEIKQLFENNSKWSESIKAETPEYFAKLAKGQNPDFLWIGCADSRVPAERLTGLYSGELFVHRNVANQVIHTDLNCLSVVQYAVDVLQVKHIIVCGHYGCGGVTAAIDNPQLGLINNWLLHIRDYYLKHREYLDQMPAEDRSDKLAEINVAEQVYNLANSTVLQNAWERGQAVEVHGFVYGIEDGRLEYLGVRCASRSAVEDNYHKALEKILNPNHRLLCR
Chain of VchαCA (Vibrio cholerae, UniProt Q9KMP6) (Q9KMP6 entry or part of it): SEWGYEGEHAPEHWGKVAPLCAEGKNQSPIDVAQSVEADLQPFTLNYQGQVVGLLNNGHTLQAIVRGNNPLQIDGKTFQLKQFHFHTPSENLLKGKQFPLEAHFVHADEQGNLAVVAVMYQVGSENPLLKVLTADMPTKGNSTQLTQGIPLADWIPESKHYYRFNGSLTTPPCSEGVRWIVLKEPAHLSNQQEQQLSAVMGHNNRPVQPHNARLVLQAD
Chain of VchγCA (Q9KVT1 1-184): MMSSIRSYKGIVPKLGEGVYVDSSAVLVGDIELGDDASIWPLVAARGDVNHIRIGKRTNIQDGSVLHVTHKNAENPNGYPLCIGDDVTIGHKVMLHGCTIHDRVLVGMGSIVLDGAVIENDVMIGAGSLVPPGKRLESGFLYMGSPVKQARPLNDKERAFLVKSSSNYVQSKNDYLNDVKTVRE

| Structure (SMILES) | Ki (VchαCA [1]) | Ki (VchβCA) | SI [ KI hCA I/KI VchαCA ] (VchαCA [2]) | SI [ KI hCA II/KI VchαCA ] (VchαCA [2]) | Ki (VchγCA) | inhibition zone diameter [3] | growth inhibition against at least one of the clinical isolates [3] | SI, selectivity with respect to human isoenzymes (VchαCA [2]; VchαCA versus human isoenzymes (abstract)) |
| --- | --- | --- | --- | --- | --- | --- | --- | --- |
| NS(=O)(=O)c1ccc(NC(=O)CNCc2ccccc2)cc1 [8b] | 0.0614 µM | 53.2 µM |  |  |  |  |  |  |
| NS(=O)(=O)c1ccc(N2CCN(Cc3ccccc3)C2=O)cc1 [8c] | 0.0026 µM | 127 µM | 3.1 | 1.2 | 8.1 µM |  |  |  |
| CCCCNCCNc1ccc(S(N)(=O)=O)cc1 [9a] | 0.0788 µM | 115 µM | 6.8 | 1.0 |  | 3–5 mm |  |  |
| CCCCNCC(=O)Nc1ccc(S(N)(=O)=O)cc1 [9b] | 0.0786 µM | 141 µM |  |  |  |  | moderate growth inhibition |  |
| CCCCN1CCN(c2ccc(S(N)(=O)=O)cc2)C1=O [9c] | 0.0047 µM | 113 µM | 128.4 | 90.0 | 54.9 µM | 3–5 mm | moderate growth inhibition | ≥ 90 |
| CC(C)NCCNc1ccc(S(N)(=O)=O)cc1 [10a] | 0.0075 µM | 12.5 µM | 119.5 | 45.0 | 92.9 µM |  |  |  |
| CC(C)NCC(=O)Nc1ccc(S(N)(=O)=O)cc1 [10b] | 0.0362 µM | 4 µM | 2.5 | 0.7 | 58.3 µM |  |  |  |
| CC(C)N1CCN(c2ccc(S(N)(=O)=O)cc2)C1=O [10c] | 0.0098 µM | 113 µM | 0.9 | 0.3 | 64.5 µM |  |  |  |
| NS(=O)(=O)c1cccc(NCCNc2ccccc2)c1 [11a] | 0.063 µM | 15.6 µM | 0.1 | 0.1 |  | 3–5 mm | moderate growth inhibition |  |
| NS(=O)(=O)c1cccc(NC(=O)CNc2ccccc2)c1 [11b] | 0.0594 µM | 132 µM | 7.5 | 0.6 |  |  | moderate growth inhibition |  |
| NS(=O)(=O)c1cccc(N2CCN(c3ccccc3)C2=O)c1 [11c] | 0.0503 µM | 100 µM | 1.2 | 0.6 | 6.5 µM |  |  |  |
| Cc1ccc(NCCNc2cccc(S(N)(=O)=O)c2)cc1 [12a] | 0.0441 µM | 173 µM |  |  | 79 µM |  |  |  |
| Cc1ccc(NCC(=O)Nc2cccc(S(N)(=O)=O)c2)cc1 [12b] | 0.0731 µM | 121 µM | 1.2 | 0.1 | 9.6 µM |  |  |  |
| Cc1ccc(N2CCN(c3cccc(S(N)(=O)=O)c3)C2=O)cc1 [12c] | 0.011 µM |  |  |  | 76 µM |  |  |  |
| NS(=O)(=O)c1cccc(NCCNc2ccc(Cl)cc2)c1 [13a] | 0.0756 µM | 59.2 µM | 4.6 | 0.2 | 5.6 µM |  | moderate growth inhibition |  |
| NS(=O)(=O)c1cccc(NC(=O)CNc2ccc(Cl)cc2)c1 [13b] | 0.0755 µM | 70.4 µM | 3.6 | 0.4 |  |  |  |  |
| NS(=O)(=O)c1cccc(N2CCN(c3ccc(Cl)cc3)C2=O)c1 [13c] | 0.004 µM | 122 µM | 7.6 | 21.0 | 73.7 µM |  |  |  |
| NS(=O)(=O)c1cccc(NCCNc2ccccc2Br)c1 [14a] | 0.0635 µM | 97 µM | 0.1 | 0.1 |  |  |  |  |
| NS(=O)(=O)c1cccc(NC(=O)CNc2ccccc2Br)c1 [14b] | 0.0723 µM | 16 µM | 0.3 |  | 72.4 µM |  |  |  |
| NS(=O)(=O)c1cccc(N2CCN(c3ccccc3Br)C2=O)c1 [14c] | 0.01 µM | 132 µM | 0.8 | 5.4 | 81.3 µM |  |  |  |
| CCCCNCCNc1cccc(S(N)(=O)=O)c1 [15a] | 0.0803 µM | 56.5 µM | 1.9 | 0.5 | 69.3 µM |  |  |  |
| CCCCNCC(=O)Nc1cccc(S(N)(=O)=O)c1 [15b] | 0.0664 µM | 116 µM | 1.3 | 0.6 | 73.6 µM |  |  |  |
| CCCCN1CCN(c2cccc(S(N)(=O)=O)c2)C1=O [15c] | 0.047 µM | 122 µM | 0.8 | 0.2 | 8 µM |  |  |  |
